Assays:
[1] = tested on: pancreatic ductal adenocarcinoma xenograft; conditions: combination therapy of VS-5584 with ERK inhibitor SCH772984; cited from earlier work
[2] = Stability of VS-5584 in rat plasma (QC samples, UPLC-MS/MS); type: in vitro ADME; conditions: for Stability RE (%): n = 3
Protocol: Quality control (QC) samples were prepared at LLOQ, low, medium, and high concentrations (1.0, 2.0, 200, and 800 ng/mL) separately in the same manner. The IS working solution was prepared in acetonitrile at a concentration of 40 ng/mL.
Stability studies were conducted under a variety of different conditions. The accuracy and precision under the above conditions should be within ±15%.

| Structure (SMILES) | tumor suppression rate [1] [%] | stability of processed samples (in words) ([2]; 4°C in an autosampler for 12 h) | Stability RE (%) ([2]; processed samples, 4°C in autosampler for 12 h, spiked 2.0 ng/mL) | Stability RE (%) ([2]; processed samples, 4°C in autosampler for 12 h, spiked 200 ng/mL) | Stability RE (%) ([2]; processed samples, 4°C in autosampler for 12 h, spiked 800 ng/mL) | Stability RE (%) ([2]; rat plasma, 12 h at room temperature, spiked 2.0 ng/mL) | Stability RE (%) ([2]; rat plasma, 12 h at room temperature, spiked 200 ng/mL) | Stability RE (%) ([2]; rat plasma, 12 h at room temperature, spiked 800 ng/mL) | Stability RE (%) ([2]; rat plasma, 30 days at −25°C, spiked 2.0 ng/mL) | Stability RE (%) ([2]; rat plasma, 30 days at −25°C, spiked 200 ng/mL) | Stability RE (%) ([2]; rat plasma, 30 days at −25°C, spiked 800 ng/mL) | Stability RE (%) ([2]; rat plasma, three freeze–thaw cycles, spiked 2.0 ng/mL) | Stability RE (%) ([2]; rat plasma, three freeze–thaw cycles, spiked 200 ng/mL) | Stability RE (%) ([2]; rat plasma, three freeze–thaw cycles, spiked 800 ng/mL) | stability in rat plasma (in words) ([2]; −25°C for 30 days, room temperature for 12 h, three freeze-thaw cycles) |
| --- | --- | --- | --- | --- | --- | --- | --- | --- | --- | --- | --- | --- | --- | --- | --- |
| O=C(Nc1ccc2[nH]nc(-c3ccncc3)c2c1)[C@@H]1CCN(CC(=O)N2CCN(c3ccc(-c4ncccn4)cc3)CC2)C1 [SCH772984] | 80 | – | – | – | – | – | – | – | – | – | – | – | – | – | – |
| Cc1nc2c(-c3cnc(N)nc3)nc(N3CCOCC3)nc2n1C(C)C [VS-5584] | – | remained intact | −8.7 | 10.4 | 9.9 | −7.0 | 10.7 | 9.2 | 9.4 | −12.2 | −5.7 | −6.5 | −6.5 | 7.4 | stable |

From article PMC7759402 (Journal of Analytical Methods in Chemistry, 2020)
